Measurements taken from the NIST ThermoML archive (doi:10.1016/j.jct.2005.10.004).
Values joined by “and” are separate entries in the source; they are usually repeats but may differ in a detail not shown here. Equal values may be shown once.

Assay: xn = mol fraction of the nth substance listed
Conditions: Gas, Buoyancy - hydrostatic balance with magnetic suspension - one sinker

N#N [nitrogen] + C
Conditions | mass density
299.91 K, 7416.3 kPa, x2 = 0.8 | 59.8697 kg/m3
299.91 K, 7417.6 kPa, x2 = 0.8 | 59.8813 kg/m3
299.91 K, 9999.1 kPa, x2 = 0.8 | 82.4744 kg/m3
299.91 K, 10000 kPa, x2 = 0.8 | 82.4859 kg/m3
299.91 K, 10001 kPa, x2 = 0.8 | 82.4925 kg/m3
299.91 K, 12313 kPa, x2 = 0.8 | 102.883 kg/m3
299.91 K, 12314 kPa, x2 = 0.8 | 102.89 kg/m3
299.91 K, 14412 kPa, x2 = 0.8 | 121.138 kg/m3 and 121.127 kg/m3
299.91 K, 16342 kPa, x2 = 0.8 | 137.386 kg/m3
299.91 K, 16343 kPa, x2 = 0.8 | 137.395 kg/m3
299.92 K, 2421.7 kPa, x2 = 0.8 | 18.4741 kg/m3
299.92 K, 4995 kPa, x2 = 0.8 | 39.3048 kg/m3
299.92 K, 9109.5 kPa, x2 = 0.8 | 74.6412 kg/m3
299.99 K, 13043 kPa, x2 = 0.8998 | 105.072 kg/m3
299.99 K, 15058 kPa, x2 = 0.8998 | 122.114 kg/m3 and 122.112 kg/m3
299.99 K, 17101 kPa, x2 = 0.8998 | 138.717 kg/m3 and 138.72 kg/m3
299.99 K, 19357 kPa, x2 = 0.8998 | 155.97 kg/m3
299.99 K, 19358 kPa, x2 = 0.8998 | 155.975 kg/m3
300 K, 899.61 kPa, x2 = 0.8998 | 6.30257 kg/m3
300 K, 2023 kPa, x2 = 0.8998 | 14.4126 kg/m3
300 K, 2023.1 kPa, x2 = 0.8998 | 14.4136 kg/m3
300 K, 2766.3 kPa, x2 = 0.8998 | 19.9248 kg/m3
300 K, 4003.3 kPa, x2 = 0.8998 | 29.3523 kg/m3
300 K, 4948.9 kPa, x2 = 0.8998 | 36.7656 kg/m3
300 K, 5998.7 kPa, x2 = 0.8998 | 45.1981 kg/m3
300 K, 5998.9 kPa, x2 = 0.8998 | 45.2004 kg/m3
300 K, 6904.7 kPa, x2 = 0.8 | 55.4385 kg/m3
300 K, 6954.3 kPa, x2 = 0.8998 | 53.0353 kg/m3
300 K, 8009.1 kPa, x2 = 0.8998 | 61.855 kg/m3
300 K, 8009.7 kPa, x2 = 0.8998 | 61.8592 kg/m3
300 K, 9029.6 kPa, x2 = 0.8998 | 70.5133 kg/m3 and 70.5136 kg/m3
300 K, 9030 kPa, x2 = 0.8998 | 70.5158 kg/m3
300 K, 10050 kPa, x2 = 0.8998 | 79.2704 kg/m3
300 K, 11034 kPa, x2 = 0.8998 | 87.7596 kg/m3
300 K, 12063 kPa, x2 = 0.8998 | 96.6441 kg/m3
300 K, 12064 kPa, x2 = 0.8998 | 96.6562 kg/m3
300 K, 12996 kPa, x2 = 0.8998 | 104.673 kg/m3
300 K, 14010 kPa, x2 = 0.8998 | 113.319 kg/m3
300 K, 14012 kPa, x2 = 0.8998 | 113.335 kg/m3
300 K, 16021 kPa, x2 = 0.8998 | 130.057 kg/m3
300 K, 16023 kPa, x2 = 0.8998 | 130.071 kg/m3
300 K, 17936 kPa, x2 = 0.8998 | 145.268 kg/m3
300 K, 17939 kPa, x2 = 0.8998 | 145.292 kg/m3
300 K, 20071 kPa, x2 = 0.8998 | 161.173 kg/m3
300 K, 20074 kPa, x2 = 0.8998 | 161.19 kg/m3
300.01 K, 19196 kPa, x2 = 0.8 | 160.005 kg/m3
349.98 K, 2438.8 kPa, x2 = 0.8 | 15.6874 kg/m3
349.98 K, 4939.5 kPa, x2 = 0.8 | 32.1898 kg/m3
349.98 K, 17023 kPa, x2 = 0.8 | 112.695 kg/m3
349.99 K, 2438.9 kPa, x2 = 0.8 | 15.6871 kg/m3
349.99 K, 4939.9 kPa, x2 = 0.8 | 32.193 kg/m3
349.99 K, 7493.5 kPa, x2 = 0.8 | 49.3399 kg/m3
349.99 K, 7494.4 kPa, x2 = 0.8 | 49.3451 kg/m3
349.99 K, 8821.7 kPa, x2 = 0.8 | 58.3187 kg/m3
349.99 K, 8822.8 kPa, x2 = 0.8 | 58.3243 kg/m3
349.99 K, 12241 kPa, x2 = 0.8 | 81.3717 kg/m3
349.99 K, 12243 kPa, x2 = 0.8 | 81.3884 kg/m3
349.99 K, 14938 kPa, x2 = 0.8 | 99.2371 kg/m3
349.99 K, 14942 kPa, x2 = 0.8 | 99.2671 kg/m3
349.99 K, 17029 kPa, x2 = 0.8 | 112.731 kg/m3
350 K, 1986.4 kPa, x2 = 0.8998 | 11.9478 kg/m3
350 K, 1986.5 kPa, x2 = 0.8998 | 11.9485 kg/m3
350 K, 3975.2 kPa, x2 = 0.8998 | 24.2393 kg/m3
350 K, 5966.2 kPa, x2 = 0.8998 | 36.8151 kg/m3
350 K, 8018.7 kPa, x2 = 0.8998 | 49.9871 kg/m3
350 K, 10026 kPa, x2 = 0.8998 | 62.975 kg/m3
350 K, 12032 kPa, x2 = 0.8998 | 75.9524 kg/m3
350 K, 12033 kPa, x2 = 0.8998 | 75.9539 kg/m3
350 K, 13967 kPa, x2 = 0.8998 | 88.3679 kg/m3
350 K, 13968 kPa, x2 = 0.8998 | 88.373 kg/m3
350 K, 16066 kPa, x2 = 0.8998 | 101.591 kg/m3
350 K, 16068 kPa, x2 = 0.8998 | 101.601 kg/m3
350 K, 16070 kPa, x2 = 0.8998 | 101.613 kg/m3
350 K, 16189 kPa, x2 = 0.8998 | 102.36 kg/m3
350 K, 18024 kPa, x2 = 0.8998 | 113.606 kg/m3
350 K, 19983 kPa, x2 = 0.8998 | 125.244 kg/m3
350 K, 19984 kPa, x2 = 0.8998 | 125.244 kg/m3
350.01 K, 8197.7 kPa, x2 = 0.8 | 54.0918 kg/m3
350.01 K, 8197.9 kPa, x2 = 0.8 | 54.0933 kg/m3
350.01 K, 10149 kPa, x2 = 0.8 | 67.2887 kg/m3
350.01 K, 11859 kPa, x2 = 0.8 | 78.8049 kg/m3
350.01 K, 11862 kPa, x2 = 0.8 | 78.8216 kg/m3
400 K, 4571.9 kPa, x2 = 0.8 | 25.5965 kg/m3
400 K, 5986.1 kPa, x2 = 0.8998 | 31.5654 kg/m3
400 K, 8029.2 kPa, x2 = 0.8998 | 42.4672 kg/m3
400 K, 9750.2 kPa, x2 = 0.8 | 54.7419 kg/m3
400 K, 12023 kPa, x2 = 0.8998 | 63.6651 kg/m3
400 K, 13644 kPa, x2 = 0.8 | 76.2876 kg/m3
400 K, 14030 kPa, x2 = 0.8998 | 74.1643 kg/m3
400 K, 18095 kPa, x2 = 0.8998 | 94.8699 kg/m3
400 K, 18098 kPa, x2 = 0.8998 | 94.8835 kg/m3
400 K, 19369 kPa, x2 = 0.8998 | 101.162 kg/m3
400.01 K, 2027.7 kPa, x2 = 0.8998 | 10.5861 kg/m3
400.01 K, 4038.9 kPa, x2 = 0.8998 | 21.2078 kg/m3
400.01 K, 4040.2 kPa, x2 = 0.8998 | 21.2133 kg/m3
400.01 K, 8029.4 kPa, x2 = 0.8998 | 42.4641 kg/m3
400.01 K, 10035 kPa, x2 = 0.8998 | 53.1468 kg/m3 and 53.1474 kg/m3
400.01 K, 14024 kPa, x2 = 0.8998 | 74.1363 kg/m3
400.01 K, 15973 kPa, x2 = 0.8998 | 84.171 kg/m3
400.01 K, 15985 kPa, x2 = 0.8998 | 84.2306 kg/m3
400.01 K, 19362 kPa, x2 = 0.8998 | 101.12 kg/m3
400.07 K, 1968.6 kPa, x2 = 0.8 | 10.9663 kg/m3
400.07 K, 5054.8 kPa, x2 = 0.8 | 28.3114 kg/m3
400.07 K, 7579.8 kPa, x2 = 0.8 | 42.5457 kg/m3
400.07 K, 7586.8 kPa, x2 = 0.8 | 42.5825 kg/m3
400.07 K, 10122 kPa, x2 = 0.8 | 56.8069 kg/m3
400.07 K, 10130 kPa, x2 = 0.8 | 56.8516 kg/m3
400.07 K, 13112 kPa, x2 = 0.8 | 73.3611 kg/m3
400.07 K, 13116 kPa, x2 = 0.8 | 73.3802 kg/m3
400.07 K, 13262 kPa, x2 = 0.8 | 74.1822 kg/m3
400.07 K, 15317 kPa, x2 = 0.8 | 85.3273 kg/m3
400.07 K, 15324 kPa, x2 = 0.8 | 85.3629 kg/m3
400.07 K, 17285 kPa, x2 = 0.8 | 95.7881 kg/m3
400.07 K, 17324 kPa, x2 = 0.8 | 95.9938 kg/m3
